Test: Human HepG2 cell viability assay in 384 well format
Format: toxicity, cell-based
Set-up: dose 125 nL, time 70.5 hour; cytotoxicity at 70.5 h: concentration not given beside the values
Conditions: HepG2 cells, read-out: Inhibition

| Structure (SMILES) | cytotoxicity at 70.5 h [%] |
| --- | --- |
| Cc1ccccc1CC1(CO)CCCN(c2ncccc2C#N)C1 (stereo not given) | -4.27 |
| Cn1cc(CCNC(=O)CCc2ccc3c(c2)OCO3)cn1 | -8.33 |
| COc1cccc(CC(C)NC(=O)NCCc2cccnc2)c1 (stereo not given) | -8.55 |
| CC(=O)N1CCCN(C(=O)NCc2cc[nH]n2)CC1 | 44.8 |
| COc1ccnc(NC(=O)CSCc2cccnc2)c1 | -1.54 |
| CCc1nc(C)cc(NC(C)C(=O)Nc2cc(F)ccc2C)n1 (stereo not given) | -15.5 |
| COc1cc(N2CCC3(CCCN(C(=O)c4cccnc4)C3)C2)ncn1 (stereo not given) | 16.7 |
| O=C(COc1ccccc1Cl)N1CCCC(n2ccnc2)C1 (stereo not given) | -2.83 |
| COCCC(=O)N1CCCC(CCC(=O)NCc2ccccc2F)C1 (stereo not given) | -6.55 |
| O=C(NCC1(O)COCCN(Cc2cccc(O)c2)C1)c1cscn1 (stereo not given) | -7.81 |
| COc1ccccc1Oc1ncccc1CNC(=O)[C@@H](C)NC(C)=O | -0.828 |
| Cn1cccc1C(=O)N1CCCCC12CC(=O)N(c1cccnc1)C2 (stereo not given) | -3.4 |
| CC(c1ccncc1)N(C)S(C)(=O)=O (stereo not given) | -5.4 |
| Cn1ccnc1CN1CCC2(CC1)CN(Cc1ccccc1)C(=O)CO2 | -5.92 |
| O=C(NCc1csc(Br)c1)c1cnccn1 | -13.5 |
| Cc1ccccc1-c1noc(CN2CCc3cncnc3C2)n1 | -11.1 |
| Cc1ccc(S(=O)(=O)N2CCN(CCC(N)=O)CC2)s1 | -7.66 |
| NC(=O)c1cc(-c2cccc(C(=O)O)c2)cs1 | -15.4 |
| Cc1cccc(CN2C[C@H](OCc3ccccn3)[C@H]3COC[C@H]32)n1 | 5.07 |
| CS(=O)(=O)N1CCO[C@@H]2CCN(C(=O)c3cccs3)CC[C@H]21 | 1.12 |
| CN(C)CCNC(=O)c1cc2n(n1)CCN(C(=O)c1ccco1)C2 | -5.47 |
| CN1CCN(C2CCN(CCOc3ccc(Cl)cc3)CC2)C1=O | -6.64 |
| Cc1cc(CSCc2ccccn2)on1 | -1.54 |

| Structure (SMILES) | cytotoxicity at 70.5 h [%] |
| --- | --- |
| O=C(C1CCCO1)N1CCCC2(CCN(c3cccnc3)CC2)C1 (stereo not given) | -3.98 |
| O=C(Nc1cccc(C2SCCS2)c1)C1CCCN1c1nccs1 (stereo not given) | 0.117 |
| CCN1CCC(NC(=O)CN2CCCCC2Cn2cccn2)CC1 (stereo not given) | -4.33 |
| CCSc1ncc(-c2cc(C3CC3)nc(N)c2C#N)cn1 | -4.52 |
| CC(C)CC(C)N(C)Cc1nnc(-c2ccco2)o1 (stereo not given) | 31.7 |
| Cc1ccccc1-c1ncc(CNCc2csc(C(C)C)n2)s1 | -5.31 |
| CC(C)(CNc1c(C#N)cnc2ccc(Cl)cc12)C(N)=O | -17.7 |
| O=C([C@@H]1C[C@@H]2CCN(C3CCOCC3)C[C@@H]2O1)N1CCCC1 | -5.63 |
| O=C(c1cnc[nH]1)N1CCC(Oc2cccnc2)CC1 | -8.28 |
| Cc1cccc(N(CCC(N)=O)C(=O)c2cc(-n3cccn3)ccn2)c1 | -12 |
| CCc1nccn1CC(=O)N1C[C@H]2CC[C@@H]1CN(S(=O)(=O)N(C)C)C2 | 1.78 |
| O=C(c1ccc(Cn2cccc2)cc1)N1CCN(CCO)CC1 | -4.52 |
| O=C(c1cscn1)N1CCC2(CCN(Cc3nccs3)CC2)C1 | -23.5 |
| O=C(N[C@@H]1CN(c2ncccn2)[C@@H]2CCCO[C@@H]21)c1cscn1 | 20.2 |
| O=C(Cc1ccc2c(c1)OCCO2)NCCc1nnc2n1CCC2 | 12.2 |
| O=C(O)CN1CCCC2(CCN2Cc2cccc(F)c2)C1 (stereo not given) | -1.42 |
| Cc1cncc(C2CCCN(C(=O)c3cnco3)C2)n1 (stereo not given) | -3.92 |
| Cc1ccc(C(=O)NS(=O)(=O)c2ccccc2C)c(=O)[nH]1 | -4.91 |
| O=C(C1CC1)N1CCCC1C1CCN(Cc2ccccc2)CC1 (stereo not given) | 1.42 |
| CC(C)C(C)N1Cc2cccc(NCC(=O)N(C)C)c2C1 (stereo not given) | -8.25 |
| CC(C)n1cnnc1Cn1c(=O)ccc2ccccc21 | -2.43 |
| COc1cc2nc3n(c(=O)c2cc1OC)CCN(C(=O)C1CCC1)CC3 | -4.59 |
| CC(C)OCCN(C)C(C)c1cccc(S(N)(=O)=O)c1 (stereo not given) | 22.5 |

| Structure (SMILES) | cytotoxicity at 70.5 h [%] |
| --- | --- |
| COc1ccc(N(C)C(=O)C2CN(C)CCO2)cc1F (stereo not given) | -12.3 |
| CN(C)S(=O)(=O)Nc1ccc(-n2nncc2C(F)(F)F)cc1 | 3.32 |
| CC(C)Cc1cc(NC(=O)c2ccccc2F)n(C)n1 | -9.5 |
| CCC(C(=O)N(Cc1ccccc1OC)C1CC1)n1cccn1 (stereo not given) | -10.3 |
| O=C(CCC(F)(F)F)N1CCCC2(CCC(=O)N(CC3CC3)C2)C1 (stereo not given) | -15.8 |
| Cc1noc(C)c1CNCC1CCN(CC(O)c2ccccc2)CC1 (stereo not given) | 2.35 |
| c1cnc(N2CCc3onc(CN4CCOCC4)c3C2)cn1 | -9.12 |
| CCCOCCOC(=O)c1ccc2c(c1)[nH]c(=O)n2C | 11.7 |
| c1cnc(C2CCCN2c2cnccn2)cn1 (stereo not given) | 6.08 |
| CC(=O)NCc1ccc(C(=O)N2CCCC2c2cnn(C)c2)cc1 (stereo not given) | -6.89 |
| CC(C)N1[C@H](Cn2cncn2)C[C@@H]2CN(Cc3cccs3)CC[C@@H]21 | -0.112 |
| CNc1oc(COc2ccc3c(c2)OCO3)nc1C#N | -19.3 |
| c1ccc(OCc2cscn2)c(CNC2CCc3ncnn3C2)c1 (stereo not given) | -4.78 |
| O=S(=O)(Nc1cnc(N2CCOCC2)nc1)c1cccc(F)c1 | 1.23 |
| CCC(O)CN1CCN(C(=O)c2ccn(-c3cccc(F)c3)n2)CC1 (stereo not given) | -5.3 |
| CCc1ccc(C2CC(=O)Nc3c2c(=O)n(C)c2ncnn32)cc1 (stereo not given) | -2.98 |
| CCOC(=O)N1CCC(NC(=O)Nc2cccnc2OCC)CC1 | 6.34 |
| CCC(=O)N1CCC1c1cc(NC2CCCC2)nc(C)n1 (stereo not given) | -2.68 |
| CC(C)(CO)Nc1c(NCc2ccccc2)c(=O)c1=O | 0.361 |
| COc1ccc(C(=O)NC2CCN(c3ncccn3)CC2)cc1F | -8.33 |
| Cc1nc(C2CCCN(C(=O)Cn3ccccc3=O)C2)no1 (stereo not given) | -9.54 |
| CC(C)(C)c1cc(NC(=O)CN2CCn3c(nnc3C3CC3)C2)on1 | 3.06 |
| CCS(=O)(=O)CCNC(=O)NC(C)c1ccc(C)s1 (stereo not given) | -8.94 |

| Structure (SMILES) | cytotoxicity at 70.5 h [%] |
| --- | --- |
| CC(=O)c1ccc(NC(=O)N(CCN(C)C)Cc2ccc(C)s2)cc1 | 2.42 |
| CC(Cc1ccccn1)N(C)Cc1ccc2c(c1)CCO2 (stereo not given) | -8.85 |
| COc1c(CNCCC(=O)Nc2cccc(C)n2)c(C(C)C)nn1C | 14.3 |
| Cc1cc(OCC(=O)N2CCCC(c3ccn[nH]3)C2)no1 (stereo not given) | -5.93 |
| O=C(NC1CCCc2nc(N3CCOCC3)ncc21)C1CCCCC1 (stereo not given) | 13.8 |
| COc1ccccc1N1CCN(C(=O)Cn2nccc2C)CC1(C)C | -3.69 |
| CC(C)c1nc2cc(NC(=O)Cn3ccccc3=O)ccc2o1 | -3.88 |
| CN1CCCC(C(=O)N2CCC(Oc3ccccn3)CC2)C1 (stereo not given) | -7.47 |
| Cc1n[nH]cc1CNC(C)c1cccc(N2CCCC2=O)c1 (stereo not given) | 14.3 |
| CCC(NC(=O)c1ccco1)c1ccccc1OCC(=O)N1CCCC1 (stereo not given) | -6.16 |
| CCN1CCCc2cc(CN3CCc4c(nc(C)[nH]c4=O)C3)ccc21 | -3.71 |
| O=C(NCCC(O)c1cccs1)c1ccco1 (stereo not given) | -9.55 |
| CN(CCCn1cnc2c(N)ncnc21)Cc1ccccc1 | -4.43 |
| COCCC(=O)Nc1ccnn1-c1ccccc1 | 1.36 |
| O=C(NC1CC1)[C@H]1C[C@H]2OCC[C@H]2N(CC2CCOCC2)C1 | 22.7 |
| Cc1nn(C)c2cnn(CC(=O)NCc3ccc(F)cc3)c12 | 12.4 |
| NC(=O)CN1CCC(c2cccc(Oc3ccccc3)n2)CC1 | -1.34 |
| OCC1CCCN1c1cc(NCc2cc3ccccc3o2)ncn1 (stereo not given) | -18.3 |
| Cc1cnn(CC(C)NCC(=O)NCCOc2ccccc2)c1 (stereo not given) | 11.7 |
| Cc1nnsc1C(=O)NCc1cccnc1N1CCc2ccccc2C1 | 16.7 |
| O=C1[C@H]2CN(CC3CCOCC3)C[C@H]2CN1c1ccsc1 | -1.42 |
| COc1cccc(-c2nccc(C3CCCN3C)n2)c1 (stereo not given) | 26.3 |
| Cc1nc(C)n(C2CCCN(C(=O)Cc3n[nH]c4ccccc34)C2)n1 (stereo not given) | 1.52 |

| Structure (SMILES) | cytotoxicity at 70.5 h [%] |
| --- | --- |
| CCCc1nc(CN(CC)Cc2ccc(O)c(C(=O)O)c2)no1 | -8.69 |
| Cc1cc(NCCO)nc(N2CCN(C)CC2)c1C#N | 1.33 |
| CCC1=N[C@@]2(CC[C@@H]3CN(Cc4ccc(Cl)cc4)C[C@@H]32)C(=O)N1C | -15.2 |
| CCN1C[C@H]2CCN(Cc3ccncc3)C(=O)[C@@H]2C1 | -12 |
| COc1ccc(C(=O)NCCc2nnc3ccccn23)c(OC)c1 | 8 |
| Cc1cc(N2CCC(O)(CN(C)C(=O)CCCN)C2)c2cnccc2n1 (stereo not given) | -0.861 |
| O=C(Nc1ccccc1)N1CCn2c(nnc2C2CCCN2)C1 (stereo not given) | -9.71 |
| CC(C)c1nccn1Cc1cc(C(=O)NCC(F)(F)F)n[nH]1 | -9.18 |
| O=C(C1CCCC1)N1CCOc2cccc(F)c21 | -7.17 |
| CC(C)CCn1ccc(NC2CCSC2)n1 (stereo not given) | -8.47 |
| CN1CCCN(C(=O)c2cccc(S(=O)(=O)NCC3(C)COC3)c2)CC1 | -0.00641 |
| Cc1ccn(C)c(=O)c1NC(=O)N(C)Cc1cccc(OC(C)C)c1 | 18.1 |
| CN(C)C(=O)N1CCC(c2nc3ccc(N4CCCC4)cn3n2)CC1 | -4.23 |
| COCCOc1ccnc(-c2noc([C@@H]3CCCN3CC(C)C)n2)c1 | -5.97 |
| Cc1cnn(CC2CCCN2C(=O)c2c(C)noc2C)c1 (stereo not given) | -11 |
| COc1ccc2cc(C(=O)NCCNc3ccc(C)nn3)[nH]c2c1 | -5.63 |
| O=c1oc(-c2cccs2)nn1CC(O)c1ccccc1 (stereo not given) | -13.3 |
| CS(=O)(=O)N1CC2(CCN(C(=O)c3csnn3)CC2)c2ccccc21 | -4.79 |
| Cc1cnc(CN(Cc2cccc(O)c2)CC2CC2)cn1 | -6.41 |
| CC(C)n1ccnc1C1CCN(C(=O)c2ccccn2)CC1 | -6.85 |
| COc1ccc(Cn2nnnc2SCC2CCCN(C)C2)cc1 (stereo not given) | -8.49 |
| COc1c(C2CCCN2C(=O)c2ccc3[nH]cnc3c2)c(C)nn1C (stereo not given) | -0.572 |
| O=C1CC(c2cccs2)c2cnn(C3CCCC3)c2N1 (stereo not given) | 6.7 |
